Laboratory results published in patent publication US8058437B2, “(Pyrroloquinoxalinyl) pyrazinecarbohydrazide-oxalic acid co-crystal for treatment of cancer and other diseases” (Novelix Pharmaceuticals, Inc., priority 2008, dated 2011).
Several values for one entry are separate records, joined by “and”; a condition that tells them apart may be missing. Identical values can stand only once. Entries after “also recorded” stand apart in the source; their conditions may differ. Like-named read-outs stand apart in the source and are kept apart here.

What was measured:
[1] = Pharmacokinetic experiments in rats (IV, oral suspension, oral solution); format: in vivo; settings: rat; for bioavailability: versus mean IV AUCINF, adjusted for dose
Experimental: The oral suspension formulation was prepared by suspending the test article in 5% PEG-200/95% of a 0.5% solution of methylcellulose. The concentration of the test article was such that a dosing volume of 10 mL/kg delivered the intended dose level. The oral solution formulations of NVX-144 and NVX-412 were prepared by dissolving the test article in 10% by volume dimethyl acetamide, followed by 60% by volume PEG-400, and then adding slowly a solution of 30% Captisol® in 50 mM lactic acid to provide the remaining 30% of volume. The concentration of the test article was such that a dosing volume of 10 mL/kg delivered the intended dose level. The IV formulation of NVX-412 was prepared by dissolving the test article in 10% by volume dimethyl acetamide, followed by 10% by volume PEG-400, and then adding slowly a solution of 10% Captisol® in 50 mM lactic acid to provide the remaining 80% of volume. The concentration of the test articles was such that a dosing volume of 2.5 mL/kg delivered the intended dose level. The doses administered were based on the body weight of each animal taken shortly before dosing. The formulations were used immediately after preparation.
A total of 15 rats were assigned to the study. Five groups of three male rats each comprised the study. Each group was treated once by oral gavage or intravenous injection via the tail vein as specified in Table 3 below.
The animals were fasted overnight prior to dosing and the feed returned approximately 2 hours post-dosing. The dose for each animal was based on the most recent body weight. Oral doses were administered by gavage. Animals received 10 mL/kg per single oral dose. Intravenous doses were administered by tail vein injection. The dose for each animal was based on the most recent body weight. Animals were dosed at 2.5 mL/kg per single intravenous dose.
Blood was collected from the animals in Groups 1 through 5 for pharmacokinetic analysis. Approximately 0.3 mL of blood was collected in potassium EDTA tubes via the orbital plexus at four time points (30 minutes, 1 hour, 4 hours, and 8 hours post-dose) from each rat treated by the oral route, and the blood samples were processed to prepare plasma. Blood was collected at four time points (5 minutes, 30 minutes, 1 hour, and 2 hours post-dose) from each rat treated by the intravenous route, and the blood samples were processed to prepare plasma. Animals were terminated (without necropsy) following their final sample collection.
The whole blood samples were centrifuged (˜1500×g) for a minimum of 10 minutes in a refrigerated centrifuge (set at ˜5° C.). Plasma was prepared and transferred within 30 minutes of blood collection/centrifugation to appropriately labeled tubes. The tubes were then frozen and stored in the dark at ≦−70° C. until analysis. The plasma samples were analyzed by LC-MS/MS to determine the plasma concentrations of NVX-144 and NVX-412. Pharmacokinetic analysis of the plasma concentration data was conducted using non-compartmental analysis with WinNonlin Version 4.1.

[2] = Salt formation experiments / physical characteristics of solid forms; format: physicochemical; settings: suitable for pharmaceutical formulation
Experimental: Thus, a series of experiments was conducted to assess the preparation of NVX-144 salts of acids other than hydrochloric acid as possible novel compounds better suited to pharmaceutical preparations. […] As expected, NVX-144 base readily formed salts with strong organic acids.
Although oxalic acid co-crystals are rare, Trask et al. have reported a co-crystal of caffeine with oxalic acid (see Trask et al., “Pharmaceutical Cocrystallization: Engineering a Remedy for Caffeine Hydration,” Crystal Growth & Design, 5, 1013-21 (2005)).
Thus NVX-144 would not be expected to form a salt with oxalic acid, a relatively strong dicarboxylic acid.

[3] = male, plasma, po, 20 mg/kg, Group 5, PO-Solution 20 mg/kg, individual animals
[4] = Group 3, PO-Suspension 20 mg/kg, Mean N=2
[5] = Group 3, PO-Suspension 20 mg/kg, individual animals
[6] = Group 5, PO-Solution 20 mg/kg, Mean N=3
[7] = Group 5, PO-Solution 20 mg/kg, individual animals
[8] = IV 5 mg/kg, individual animals, 5 mg/kg

## O=C(NNc1nc2cc(F)ccc2n2cccc12)c1cnccn1.O=C(O)C(=O)O [NVX-412, N′-(7-fluoropyrrolo[1,2a]quinoxalin-4-yl)pyrazine-2-carbohydrazide oxalic acid co-crystal]
[1]; [3]
  AUC: 2390 ng·h/mL
  AUC(0-inf): 2400 ng·h/mL
[1]; male, plasma, po, 20 mg/kg, Group 5, PO-Solution 20 mg/kg, individual animals, read-out: Cmax
  Cmax: 732 ng/mL
[1]; male, plasma, po, 20 mg/kg, Group 5, PO-Solution 20 mg/kg, individual animals, read-out: T ½ (converted)
  half-life: 1.18 h
[1]; male, plasma, po, 20 mg/kg, Group 5, PO-Solution 20 mg/kg, individual animals, read-out: Tmax
  Tmax: 0.5 to 1 h
[1]; male, plasma, po, 20 mg/kg, Group 5, PO-Solution 20 mg/kg, individual animals, read-out: Bioavailability
  bioavailability: 45.7%
[1]; Group 3, PO-Suspension 20 mg/kg, 0.5 hr, individual animals
  plasma concentration: 386.99 ng/mL and 573.34 ng/mL
[1]; Group 3, PO-Suspension 20 mg/kg, 1 hr, individual animals
  plasma concentration: 464.23 ng/mL and 584.12 ng/mL
[1]; Group 3, PO-Suspension 20 mg/kg, 4 hr, individual animals
  plasma concentration: 181.80 ng/mL and 249.34 ng/mL
[1]; Group 3, PO-Suspension 20 mg/kg, 8 hr, individual animals
  plasma concentration: 13.07 ng/mL and BLQ (BLQ = Below the Limit of Quantitation <5 ng/mL) and 5.48 ng/mL
[1]; [4]
  AUC % Extrap: 0.68%
  AUCINF: 2306.62 ng·h/mL
  T ½: 1.15 h
[1]; Group 3, PO-Suspension 20 mg/kg, Mean N=3
  Cmax: 524.61 ng/mL
[1]; [5]
  AUC % Extrap: 1.00% and 0.36%
  AUCINF: 2200.54 ng·h/mL
  AUCall: 1642.21 ng·h/mL and 2192.52 ng·h/mL
  Cmax: 464.23 ng/mL and 584.12 ng/mL
  T ½: 1.02 h
  bioavailability: 41.9%
[1]; Group 5, PO-Solution 20 mg/kg, 0.5 hr, individual animals
  plasma concentration: 635.82 ng/mL and 509.37 ng/mL
[1]; Group 5, PO-Solution 20 mg/kg, 1 hr, individual animals
  plasma concentration: 686.88 ng/mL and 489.07 ng/mL
[1]; Group 5, PO-Solution 20 mg/kg, 4 hr, individual animals
  plasma concentration: 171.97 ng/mL and 298.24 ng/mL
[1]; Group 5, PO-Solution 20 mg/kg, 8 hr, individual animals
  plasma concentration: 8.53 ng/mL and 5.14 ng/mL and 34.89 ng/mL
[1]; [6]
  AUC % Extrap: 1.73%
  Cmax: 642.71 ng/mL
  T ½: 1.37 h
[1]; [7]
  AUC % Extrap: 0.61% and 0.34% and 4.24%
  AUCINF: 2139.39 ng·h/mL and 2322.68 ng·h/mL
  AUCall: 2132.13 ng·h/mL and 2224.16 ng·h/mL
  Cmax: 686.89 ng/mL and 509.37 ng/mL
  T ½: 0.98 h and 1.96 h
  Tmax: 0.5 h
  bioavailability: 40.7% and 44.2%
[1]; IV 5 mg/kg, 0.083 h, individual animals, 5 mg/kg
  plasma concentration: 1716.72 ng/mL and 2001.77 ng/mL
[1]; IV 5 mg/kg, 0.5 h, individual animals, 5 mg/kg
  plasma concentration: 481.82 ng/mL and 461.19 ng/mL
[1]; IV 5 mg/kg, 1 h, individual animals, 5 mg/kg
  plasma concentration: 278.84 ng/mL and 253.02 ng/mL
[1]; IV 5 mg/kg, 2 h, individual animals, 5 mg/kg
  plasma concentration: 185.19 ng/mL and 143.93 ng/mL
[1]; IV 5 mg/kg, Mean of 3
  AUC % Extrap: 18.74%
[1]; IV 5 mg/kg, Mean of 3, 5 mg/kg
  AUCINF: 1314.5 ng·h/mL
  Cl: 63.43 mL/min/kg and 63.4273 mL/min/kg
  Cmax: 1842.5 ng/mL
  T ½: 1.03 h
  Vss: 3.98512 L/kg
[1]; [8]
  AUC % Extrap: 18.44% and 22.68% and 15.1%
  AUCINF: 1349.72 ng·h/mL and 1277.84 ng·h/mL
  AUCall: 1043.56 ng·h/mL and 1084.89 ng·h/mL
  Cl: 61.7413 mL/min/kg and 65.2145 mL/min/kg
  Cmax: 1716.7 ng/mL and 2001.8 ng/mL
  T ½: 1.15 h and 0.93 h
  Vss: 4.55297 L/kg and 3.44635 L/kg
[1]; administered as a solution or suspension
  oral absorption: moderate
[1]; dosed as a solution
  difference in oral absorption between NVX-412 and NVX-144: no significant difference
[1]; dosed as a suspension
  oral absorption / bioavailability of NVX-412 over NVX-144 free base: more bioavailable; also recorded: slight improvement
[2]
  hydrate formation / stability: forms stable mono- and di-hydrates
